# Source: patent publication US20180155757A1, “IDENTIFICATION OF BACTERIA THAT ARE RESISTANT TO CARBAPENEMS BY MEMBRANE IMPERVIOUSNESS” (BIOMÉRIEUX, priority 2015, published 2018)
# Where two headings read alike, the source gives them in different places.
# Legend:
# Experiment in all cases: Etest MIC of indicator carbapenems on MH II agar without/with PMBN
# Type in all cases: cell-based
# [1] = system: E. cloacae 9402034
# Method: (§1) The determinations of antibiotic MIC were carried out on solid culture media with the Etest® method. To do this, Etest® strips (bioMérieux, France) were used: • Etest® Imipenem IM 32, and • Etest® Ertapenem ETP 32, and also solid culture media, differing from one another by virtue of their non-inhibitory concentrations of PMBN.
# (§2) These solid culture media are prepared in Petri dishes (0=145 mm; V=50 ml) on a base of MH II Agar (Becton Dickinson®, United States), more or less supplemented with PMBN. The PMBN concentrations range from 0 up to concentrations equivalent to one fifth of the MIC of PMBN (⅕ MICPMBN).
# (§3) Using a swab and the Retro C80™ rota-plater (bioMérieux, France), the culture media were inoculated with the bacteria, originating from an inoculum of 0.5 McFarland, prepared in 0.85% NaCl solution from colonies subcultured the day before on MH II agar.
# (§4) The various Etest® strips are then deposited on the surface of the culture media. After 16 to 20 hours of incubation at 35° C., the MICS were read.
# (§5) To do this, imipenem and ertapenem were used as indicator carbapenems. Non-inhibitory concentrations of PMBN, equivalent to concentrations of one tenth ( 1/10), one eighth (⅛) and one fifth (⅕) of the MIC of PMBN, were applied.
# (§6) In the light of the MICPMBN values previously identified, very predominantly much higher than 300 μg/ml, the following standard concentrations were retained and applied to the bacterial strains to be tested: 50, 100, 150, 200 and 300 μg/ml.
# (§7) By way of indicator carbapenems according to the invention, in addition to imipenem (IM) and ertapenem (ETP), meropenem (MP) was also tested. Like the other two antibiotics, meropenem was used in the form of Etest® strips (Etest® Meropenem MP 32 from the company bioMérieux, France).
# (§8) The methods used to prepare the new culture media and to carry out the antibiotic-sensitivity tests are identical to those described above.
# [2] = system: E. aerogenes 9203076
# Method: as §1, §2, §3, §4, §5, §6, §7, §8
# [3] = system: K. pneumoniae 1002015
# Method: as §1, §2, §3, §4, §5, §6, §7, §8
# [4] = system: K. pneumoniae 1204034
# Method: as §1, §2, §3, §4, §5, §6, §7, §8
# [5] = system: E. aerogenes 9306071
# Method: as §1, §2, §3, §4, §5, §6, §7, §8
# [6] = system: E. coli 1204043
# Method: as §1, §2, §3, §4, §5, §6, §7, §8
# [7] = system: E. aerogenes 1204048; conditions: in µg/mL
# Method: as §1, §2, §3, §4, §5, §6, §7, §8
# [8] = system: E. aerogenes 1204050 (membrane impermeability); conditions: in µg/mL
# Summary of the method: (§9)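 MICs are read directly from Etest strips of imipenem, ertapenem or meropenem after 16–20 h at 35° C. The agar is MH II with PMBN at 0 up to ⅕ of its own MIC, inoculated by swab at 0.5 McFarland.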
# [9] = system: K. pneumoniae KP 55 (porin−); conditions: Klebsiella pneumoniae
# Summary of the method: as §9
# [10] = system: K. pneumoniae 1012142 (KPC-2 producer)
# Summary of the method: as §9
# [11] = system: E. cloacae 1204052 (membrane impermeability)
# Summary of the method: as §9
# [12] = system: Enterobacter aerogenes EA 2 (porin+); conditions: Klebsiella aerogenes, EA 2 (porin+), read-out: MIC
# Method: as §1, §2, §3, §4
# [13] = system: Enterobacter aerogenes EA 15038 (porin+); conditions: Klebsiella aerogenes, EA 15038 (porin+), read-out: MIC
# Method: as §1, §2, §3, §4
smiles,measurement,setting,value
"C[C@@H](O)[C@H]1C(=O)N2C(C(=O)O)=C(SCCN=CN)C[C@H]12 [IM, imipenem]",MIC,"[1]; E. cloacae 9402034 (membrane impermeability), [PMBN] 0, Table 4a",> 32 µg/mL
same,MIC,"[1]; E. cloacae 9402034 (membrane impermeability), [PMBN] 100, Table 4a",8 µg/mL
same,MIC,"[1]; E. cloacae 9402034 (membrane impermeability), [PMBN] 200, Table 4a",12 µg/mL
same,MIC,"[1]; E. cloacae 9402034 (membrane impermeability), [PMBN] 300, Table 4a",12 µg/mL
same,MIC,"[1]; E. cloacae 9402034, [PMBN] 0, Table 3",16 µg/mL
same,MIC,"[1]; E. cloacae 9402034, [PMBN] MIC/5",8 µg/mL
same,MIC,"[1]; E. cloacae 9402034, [PMBN] MIC/8",8 µg/mL
same,MIC,"[1]; E. cloacae 9402034, [PMBN] MIC/10",8 µg/mL
same,MIC,"[2]; E. aerogenes 9203076 (membrane impermeability), [PMBN] 0, Table 4a, in µg/mL",8
same,MIC,"[2]; E. aerogenes 9203076 (membrane impermeability), [PMBN] 100, Table 4a, in µg/mL",16
same,MIC,"[2]; E. aerogenes 9203076 (membrane impermeability), [PMBN] 200, Table 4a, in µg/mL",4
same,MIC,"[2]; E. aerogenes 9203076 (membrane impermeability), [PMBN] 300, Table 4a, in µg/mL",4
same,MIC,"[2]; E. aerogenes 9203076, [PMBN] 0, Table 3, in µg/mL",8
same,MIC,"[2]; E. aerogenes 9203076, [PMBN] MIC/5, in µg/mL",2
same,MIC,"[2]; E. aerogenes 9203076, [PMBN] MIC/8, in µg/mL",2
same,MIC,"[2]; E. aerogenes 9203076, [PMBN] MIC/10, in µg/mL",2
same,MIC,"[2]; Klebsiella aerogenes, 9203076, E. aerogenes 9203076 (porin−), [PMBN] 0, Table 4, read-out: MIC",6 µg/mL
same,MIC,"[2]; Klebsiella aerogenes, 9203076, E. aerogenes 9203076 (porin−), [PMBN] 150 μg/ml, Table 4, read-out: MIC",3 µg/mL
same,MIC,"[2]; Klebsiella aerogenes, 9203076, E. aerogenes 9203076 (porin−), [PMBN] 200 μg/ml, Table 4, read-out: MIC",3 µg/mL
same,MIC,"[3]; K. pneumoniae 1002015, [PMBN] 0, Table 3",2 µg/mL
same,MIC,"[3]; K. pneumoniae 1002015, [PMBN] MIC/5",0.25 µg/mL
same,MIC,"[3]; K. pneumoniae 1002015, [PMBN] MIC/8",0.25 µg/mL
same,MIC,"[3]; K. pneumoniae 1002015, [PMBN] MIC/10",0.5 µg/mL
same,MIC,"[3]; Klebsiella pneumoniae, 1002015, K. pneumoniae 1002015 (porin−), [PMBN] 0, Table 4, read-out: MIC",0.5 µg/mL
same,MIC,"[3]; Klebsiella pneumoniae, 1002015, K. pneumoniae 1002015 (porin−), [PMBN] 150 μg/ml, Table 4, read-out: MIC",0.38 µg/mL
same,MIC,"[3]; Klebsiella pneumoniae, 1002015, K. pneumoniae 1002015 (porin−), [PMBN] 200 μg/ml, Table 4, read-out: MIC",0.25 µg/mL
same,MIC,"[4]; K. pneumoniae 1204034 (membrane impermeability), [PMBN] 0, Table 4a",3 µg/mL
same,MIC,"[4]; K. pneumoniae 1204034 (membrane impermeability), [PMBN] 100, Table 4a",0.5 µg/mL
same,MIC,"[4]; K. pneumoniae 1204034 (membrane impermeability), [PMBN] 200, Table 4a",0.38 µg/mL
same,MIC,"[4]; K. pneumoniae 1204034 (membrane impermeability), [PMBN] 300, Table 4a",0.19 µg/mL
same,MIC,"[4]; K. pneumoniae 1204034, [PMBN] 0, Table 3",2 µg/mL
same,MIC,"[4]; K. pneumoniae 1204034, [PMBN] MIC/5",0.5 µg/mL
same,MIC,"[4]; K. pneumoniae 1204034, [PMBN] MIC/8",0.5 µg/mL
same,MIC,"[4]; K. pneumoniae 1204034, [PMBN] MIC/10",0.5 µg/mL
same,MIC,"[4]; Klebsiella pneumoniae, 1204034, K. pneumoniae 1204034 (porin−), [PMBN] 0, Table 4, read-out: MIC",2 µg/mL
same,MIC,"[4]; Klebsiella pneumoniae, 1204034, K. pneumoniae 1204034 (porin−), [PMBN] 150 μg/ml, Table 4, read-out: MIC",0.38 µg/mL
same,MIC,"[4]; Klebsiella pneumoniae, 1204034, K. pneumoniae 1204034 (porin−), [PMBN] 200 μg/ml, Table 4, read-out: MIC",0.38 µg/mL
same,MIC,"[5]; E. aerogenes 9306071 (membrane impermeability), [PMBN] 0, Table 4a",12 µg/mL
same,MIC,"[5]; E. aerogenes 9306071 (membrane impermeability), [PMBN] 100, Table 4a",6 µg/mL
same,MIC,"[5]; E. aerogenes 9306071 (membrane impermeability), [PMBN] 200, Table 4a",3 µg/mL
same,MIC,"[5]; E. aerogenes 9306071 (membrane impermeability), [PMBN] 300, Table 4a",2 µg/mL
same,MIC,"[5]; E. aerogenes 9306071, [PMBN] 0, Table 3",8 µg/mL
same,MIC,"[5]; E. aerogenes 9306071, [PMBN] MIC/5",2 µg/mL
same,MIC,"[5]; E. aerogenes 9306071, [PMBN] MIC/8",4 µg/mL
same,MIC,"[5]; E. aerogenes 9306071, [PMBN] MIC/10",4 µg/mL
same,MIC,"[6]; E. coli 1204043 (membrane impermeability), [PMBN] 0, Table 4a, in µg/mL",>32
same,MIC,"[6]; E. coli 1204043 (membrane impermeability), [PMBN] 100, Table 4a, in µg/mL",6-8
same,MIC,"[6]; E. coli 1204043 (membrane impermeability), [PMBN] 200, Table 4a, in µg/mL",3-6
same,MIC,"[6]; E. coli 1204043 (membrane impermeability), [PMBN] 300, Table 4a, in µg/mL",3
same,MIC,"[6]; E. coli 1204043, [PMBN] 0, Table 3, in µg/mL",8
same,MIC,"[6]; E. coli 1204043, [PMBN] MIC/5, in µg/mL",1
same,MIC,"[6]; E. coli 1204043, [PMBN] MIC/8, in µg/mL",1
same,MIC,"[6]; E. coli 1204043, [PMBN] MIC/10, in µg/mL",2
same,MIC,"[6]; Escherichia coli, 1204043, E. coli 1204043 (porin−), [PMBN] 0, Table 4, read-out: MIC",24 µg/mL
same,MIC,"[6]; Escherichia coli, 1204043, E. coli 1204043 (porin−), [PMBN] 150 μg/ml, Table 4, read-out: MIC",1 µg/mL
same,MIC,"[6]; Escherichia coli, 1204043, E. coli 1204043 (porin−), [PMBN] 200 μg/ml, Table 4, read-out: MIC",0.25 µg/mL
same,MIC,"[7]; E. aerogenes 1204048 (membrane impermeability), [PMBN] 0, Table 4a",>32
same,MIC,"[7]; E. aerogenes 1204048 (membrane impermeability), [PMBN] 100, Table 4a",12
same,MIC,"[7]; E. aerogenes 1204048 (membrane impermeability), [PMBN] 200, Table 4a",6
same,MIC,"[7]; E. aerogenes 1204048 (membrane impermeability), [PMBN] 300, Table 4a",3
same,MIC,"[7]; E. aerogenes 1204048, [PMBN] 0, Table 3",16
same,MIC,"[7]; E. aerogenes 1204048, [PMBN] MIC/5",0.5
same,MIC,"[7]; E. aerogenes 1204048, [PMBN] MIC/8",1
same,MIC,"[7]; E. aerogenes 1204048, [PMBN] MIC/10",2
same,MIC,"[8]; [PMBN] 0, Table 4a",>32
same,MIC,"[8]; [PMBN] 100, Table 4a",>32
same,MIC,"[8]; [PMBN] 200, Table 4a",>32
same,MIC,"[8]; [PMBN] 300, Table 4a",>32
same,MIC,[9]; [PMBN] 0,0.38 µg/mL
same,MIC,[9]; [PMBN] 50 μg/ml,0.25 µg/mL
same,MIC,[9]; [PMBN] 100 μg/ml,0.25 µg/mL
same,MIC,[9]; [PMBN] 150 μg/ml,0.25 µg/mL
same,MIC,[9]; [PMBN] 200 μg/ml,0.19 µg/mL
same,MIC,"[10]; [PMBN] 0, Table 4a",> 32 µg/mL
same,MIC,"[10]; [PMBN] 100, Table 4a",> 32 µg/mL
same,MIC,"[10]; [PMBN] 200, Table 4a",> 32 µg/mL
same,MIC,"[10]; [PMBN] 300, Table 4a",> 32 µg/mL
same,MIC,"[11]; [PMBN] 0, Table 4a",3 µg/mL
same,MIC,"[11]; [PMBN] 100, Table 4a",3 µg/mL
same,MIC,"[11]; [PMBN] 200, Table 4a",2 µg/mL
same,MIC,"[11]; [PMBN] 300, Table 4a",1.5 µg/mL
same,MIC,[12]; [PMBN] 0,0.03 µg/mL
same,MIC,[12]; [PMBN] MIC/5,0.03 µg/mL
same,MIC,[12]; [PMBN] MIC/8,0.06 µg/mL
same,MIC,[12]; [PMBN] MIC/10,0.06 µg/mL
same,MIC,[13]; [PMBN] 0,0.25 µg/mL
same,MIC,[13]; [PMBN] MIC/5,0.25 µg/mL
same,MIC,[13]; [PMBN] MIC/8,0.5 µg/mL
same,MIC,[13]; [PMBN] MIC/10,0.5 µg/mL
